# Results published in PubChem BioAssay AID1963847 (Molecular Pharmacology Branch, DTP, NCI, 2024).
# pIC50: −log10 of the molar value. Several values for one entry are separate records, joined by “and”; a condition that tells them apart may be missing. Identical values can stand only once.
# System: 415267-285-R-J2-PDC complex spheroid viability
# Assay: Anticancer human tumor 415267-285-R-J2-PDC patient-derived breast carcinoma cell line growth inhibition [POLQ]
# Conditions: for viability, T/C: stronger effect = lower value
# Experimental: Multicellular complex tumor spheroid response to Polymerase (POL) inhibitors (novobiocin, ART-558, RP6685) in combination with a variety of drugs and investigational agents in selected tumor cell lines
# The POL inhibitors (novobiocin, ART-558, and RP6685) were evaluated both individually and in combination with standard of care and investigational anticancer small molecules within a complex spheroid model of solid tumors. . Complex spheroids include a stromal component modeled by human endothelial cells (HUVEC) and fibroblasts modeled by human mesenchymal stem cells (MSCs). The concentration ranges selected for each drug and investigational agent were based upon clinically achievable concentrations if the clinical Cmax of the agent was known.
# Compounds. The drugs and investigational agents: novobiocin (NSC847541), ART-558 (NSC835418), RP-6685 (NSC848927), peposertib (NSC802822), ceralasertib (NSC780249), elimusertib (NSC800525), camonsertib (NSC841442), AZD-1390 (NSC803789), olaparib (NSC753686), talazoparib (NSC767125), rucaparib (NSC756644), sotorasib (NSC818433), MRTX-1133 (NSC836407), SN-38 (NSC673596), topotecan (NSC609699), epotoside (NSC141540), doxorubicin (NSC123127), gemcitabine (NSC613327), 5-fluorouracil (NSC19893), paclitaxel (NSC125973), vemurafenib (NSC761431), MSA-2 (NSC828583), SN-011 (NSC837082), adavosertib (NSC754352), prexasertib (NSC758257), carboplatin (NSC241240) and oxaliplatin (NSC266046), were obtained from the National Cancer Institute (NCI) Developmental Therapeutics Program Chemical Repository (21). The FDA-approved anticancer drug set is available from the Developmental Therapeutics Program at https://dtp.cancer.gov/organization/dscb/obtaining/. […] The stock solutions were prepared in dimethyl sulfoxide (DMSO, Sigma-Aldrich, St. Louis, MO, cat. D2650), except for the platinum compounds which were prepared in saline (Quality Biological, Gaithersburg, MD, cat. 114-055-101), at 800-fold the tested concentration and stored at -70 degrees C prior to their use. All drugs and investigational agents were tested over a range starting from a high concentration at or near the clinical Cmax and decreasing in half-log increments. If the clinical Cmax for an agent had not been determined, the highest concentration tested was 10 microM, except for SN-38, which was tested at a high concentration of 1 microM.
# Cell Culture. All cells were maintained in an incubator at 37 degrees C and 5% CO2 with 95% humidity. The PDC lines were cultured according to standard operating procedures established by the NCI PDMR (https://pdmr.cancer.gov). Table 3 of the manuscript, lists the cell lines along with the number of the three cell types plated to form the mct-spheroids and media for tumor cell growth. After thawing, all PDC lines, except 997537-175-T-J1-PDC and 415267-285-R-J2-PDC, were cultured in Matrigel-coated flasks prepared with a working solution of 1X Ham's F-12 nutrient mix, without supplementation (Thermo Fisher Scientific, cat. 11765054), 100 U/mL penicillin-streptomycin (Thermo Fisher Scientific, cat. 15140122), and 2.5% Matrigel (Corning Inc., Corning, NY, cat. 354248) for the first three passages. The two PDC lines 997537-175-T-J1-PDC and 415267-285-R-J2-PDC were cultured on uncoated flasks. The 857933-349-R-J2-PDC line was cultured in 6C/Colon 1B media containing advanced DMEM/F-12 (Thermo Fisher Scientific, cat. 12634028), 10 mM HEPES (Thermo Fisher Scientific, cat. 15630080), 1X GlutaMAX supplement (Thermo Fisher Scientific, cat. 35050061), 0.1 mg/mL primocin (InvivoGen, San Diego, CA, cat. ant-pm-2), 10% defined fetal bovine serum, heat inactivated (HyClone Laboratories Inc., Logan, UT, cat. SH30070.03HI), 50% L-WRN conditioned media (ATCC, cat. CRL-3276), 1.25 mM N-Acetyl-L-cysteine (Sigma-Aldrich, cat. A9165), 10 mM nicotinamide (Sigma-Aldrich, cat. N0636), 1X B-27 supplement (Thermo Fisher Scientific, cat. 17504044), 1X N-2 supplement (Thermo Fisher Scientific, cat. […]
# 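Further: spheroids exposed to compounds for one week before readout.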
# 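Wherever viability, T/C is given: luminescence used as stand-in measure of viable cells; 100% = DMSO vehicle control viability.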
structure (smiles),measurement,setting,value
O=c1[nH]cc(F)c(=O)[nH]1,"viability, T/C",compound 0.0316 µM,87.3% and 92.5% and 87%
same,"viability, T/C",compound 0.1 µM,74.7% and 89% and 73.5%
same,"viability, T/C",compound 0.316 µM,33.6% and 48.5% and 30.5%
same,"viability, T/C",compound 1 µM,29.1% and 24.6% and 27.7%
same,"viability, T/C",compound 3.16 µM,24.6% and 24.4% and 26%
same,"viability, T/C",compound 10 µM,31.8% and 40.5% and 34.1%
same,pIC50,curve of compound,6.70 and 6.52 and 6.73
CC(=O)O[C@H]1C(=O)[C@@]2(C)[C@H]([C@H](OC(=O)c3ccccc3)[C@]3(O)C[C@H](OC(=O)[C@H](O)[C@@H](NC(=O)c4ccccc4)c4ccccc4)C(C)=C1C3(C)C)[C@]1(OC(C)=O)CO[C@@H]1C[C@@H]2O,"viability, T/C",compound 0.00949 µM,16.9% and 25% and 13%
same,"viability, T/C",compound 0.03 µM,9.1% and 9.98% and 8.84%
same,"viability, T/C",compound 0.0949 µM,8.45% and 7.67% and 7.24%
same,"viability, T/C",compound 0.3 µM,8.09% and 8.99% and 7.37%
same,"viability, T/C",compound 0.949 µM,6.85% and 7.15% and 7.58%
same,"viability, T/C",compound 3 µM,7.67% and 7.6% and 8.18%
same,pIC50,curve of compound,> 8.02
COc1cc(C2c3cc4c(cc3C(OC3OC5COC(C)OC5C(O)C3O)C3COC(=O)C23)OCO4)cc(OC)c1O (configuration not stated),"viability, T/C",compound 0.0316 µM,91.8% and 103% and 92%
same,"viability, T/C",compound 0.1 µM,59.7% and 89.7% and 71.3%
same,"viability, T/C",compound 0.316 µM,14.1% and 19.4% and 17.1%
same,"viability, T/C",compound 1 µM,7.22% and 5.65% and 8.76%
same,"viability, T/C",compound 3.16 µM,4.9% and 4.07% and 5.15%
same,"viability, T/C",compound 10 µM,5.87% and 5.42% and 6.28%
same,pIC50,curve of compound,6.89 and 6.72 and 6.80
CC1COCCN1c1cc(C2(S(C)(=N)=O)CC2)nc(-c2ccnc3[nH]ccc23)n1 (configuration not stated),"viability, T/C",compound 0.0316 µM,96.2% and 107% and 97.5%
same,"viability, T/C",compound 0.1 µM,93.1% and 103% and 94.9%
same,"viability, T/C",compound 0.316 µM,69.9% and 86.8% and 66.4%
same,"viability, T/C",compound 1 µM,12.1% and 15.8% and 13%
same,"viability, T/C",compound 3.16 µM,7.35% and 7.07% and 7.38%
same,"viability, T/C",compound 10 µM,5.4% and 3.22% and 5.26%
same,pIC50,curve of compound,6.33 and 6.24 and 6.35
O=C(Nc1ccc(O)c(NS(=O)(=O)c2ccc(F)cc2)c1)c1ccc(-c2ccccc2)cc1 + COC1C(OC(N)=O)C(O)C(Oc2ccc3c(O)c(NC(=O)c4ccc(O)c(CC=C(C)C)c4)c(=O)oc3c2C)OC1(C)C,pIC50,"curve of first compound, second compound 0.0316 µM",5.07
same,pIC50,"curve of first compound, second compound 0.1 µM",5.05
same,pIC50,"curve of first compound, second compound 0.316 µM",5.06
same,pIC50,"curve of first compound, second compound 1 µM",5.07
same,pIC50,"curve of first compound, second compound 3.16 µM",5.09
same,pIC50,"curve of first compound, second compound 10 µM",< 5.00
same,"viability, T/C","second compound 0.0316 µM, first compound 0.0316 µM",97.7%
same,"viability, T/C","second compound 0.0316 µM, first compound 0.1 µM",93%
same,"viability, T/C","second compound 0.0316 µM, first compound 0.316 µM",94.8%
same,"viability, T/C","second compound 0.0316 µM, first compound 1 µM",95.8%
same,"viability, T/C","second compound 0.0316 µM, first compound 3.16 µM",93.6%
same,"viability, T/C","second compound 0.0316 µM, first compound 10 µM",42.9%
same,"viability, T/C","second compound 0.1 µM, first compound 0.0316 µM",95.8%
same,"viability, T/C","second compound 0.1 µM, first compound 0.1 µM",101%
same,"viability, T/C","second compound 0.1 µM, first compound 0.316 µM",87.6%
same,"viability, T/C","second compound 0.1 µM, first compound 1 µM",114%
same,"viability, T/C","second compound 0.1 µM, first compound 3.16 µM",94.6%
same,"viability, T/C","second compound 0.1 µM, first compound 10 µM",44.3%
same,"viability, T/C","second compound 0.316 µM, first compound 0.0316 µM",110%
same,"viability, T/C","second compound 0.316 µM, first compound 0.1 µM",99.2%
same,"viability, T/C","second compound 0.316 µM, first compound 0.316 µM",98.9%
same,"viability, T/C","second compound 0.316 µM, first compound 1 µM",117%
same,"viability, T/C","second compound 0.316 µM, first compound 3.16 µM",94.3%
same,"viability, T/C","second compound 0.316 µM, first compound 10 µM",44.4%
same,"viability, T/C","second compound 1 µM, first compound 0.0316 µM",90.6%
same,"viability, T/C","second compound 1 µM, first compound 0.1 µM",108%
same,"viability, T/C","second compound 1 µM, first compound 0.316 µM",95.7%
same,"viability, T/C","second compound 1 µM, first compound 1 µM",104%
same,"viability, T/C","second compound 1 µM, first compound 3.16 µM",93.3%
same,"viability, T/C","second compound 1 µM, first compound 10 µM",42.9%
same,"viability, T/C","second compound 3.16 µM, first compound 0.0316 µM",103%
same,"viability, T/C","second compound 3.16 µM, first compound 0.1 µM",105%
same,"viability, T/C","second compound 3.16 µM, first compound 0.316 µM",119%
same,"viability, T/C","second compound 3.16 µM, first compound 1 µM",113%
same,"viability, T/C","second compound 3.16 µM, first compound 3.16 µM",94.4%
same,"viability, T/C","second compound 3.16 µM, first compound 10 µM",40.5%
same,"viability, T/C","second compound 10 µM, first compound 0.0316 µM",118%
same,"viability, T/C","second compound 10 µM, first compound 0.1 µM",110%
same,"viability, T/C","second compound 10 µM, first compound 0.316 µM",103%
same,"viability, T/C","second compound 10 µM, first compound 1 µM",98.5%
same,"viability, T/C","second compound 10 µM, first compound 3.16 µM",92.5%
same,"viability, T/C","second compound 10 µM, first compound 10 µM",48.5%
CCc1cc2c(N3CCc4c(cc(Cn5ccnc5)cc4-c4cn(C)nc4C(F)(F)F)C3=O)cc(C)nc2c(OC)n1,"viability, T/C",compound 0.0316 µM,84.8% and 99.7% and 90.9%
same,"viability, T/C",compound 0.1 µM,89.5% and 98.3% and 92.6%
same,"viability, T/C",compound 0.316 µM,74.6% and 79% and 86.6%
same,"viability, T/C",compound 1 µM,80.3% and 82.8% and 91.5%
same,"viability, T/C",compound 3.16 µM,71.9% and 84% and 83.9%
same,"viability, T/C",compound 10 µM,69% and 78.6% and 69.5%
same,pIC50,curve of compound,< 5.00
